Measured values reported in patent US11986471B2, “Compounds and methods of use” (Tango Therapeutics, Inc., priority 2018, dated 2024).
pIC50: −log10 of the molar value.

Experiments:
PRMT5 [1] = target: T1, PRMT5 (Homo sapiens, UniProt O14744); experiment: PRMT5 IC50 assay in the presence of SAM as cofactor; format: biochemical
T1 construct: purchased Viva (custom protein)
How it was run: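 Enzyme: human PRMT5. Conditions: plus SAM, plus MTA, or cofactor-free. Output: IC50 (μM); Ki via IC50/1.5 (SAM) or IC50/13.5 (MTA).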

PRMT5 [2] = target: T1, PRMT5; experiment: PRMT5 IC50 assay in the presence of MTA as cofactor; format: biochemical; details: for pIC50: PRMT5, MTA as cofactor; for SAM/MTA Ratio: ratio between Ki in the presence of SAM and Ki in the presence of MTA
How it was run: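 Ki conversion: SAM arm, Ki=IC50/1.5; MTA arm, Ki=IC50/13.5. No-cofactor arm reported as IC50 only. Selectivity expressed as Ki(SAM)/Ki(MTA).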

HAP1 MTAP-deleted = experiment: SDMA in-cell western assay, HAP1 MTAP-deleted cell line; format: cell-based; details: for pIC50: Homo sapiens, HAP1 MTAP-deleted cell line; for MTAP Intact/Deleted Ratio: IC50 ratio HAP1 MTAP-intact / HAP1 MTAP-deleted
How it was run: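 Symmetric dimethylarginine (SDMA) levels were measured by in-cell western in MTAP-null HAP1 cells, one half of an MTAP-isogenic pair whose partner line expresses endogenous MTAP. Compound potency is reported as IC50.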

HAP1 MTAP-intact = experiment: SDMA in-cell western assay, HAP1 MTAP-intact cell line; format: cell-based; details: Homo sapiens
How it was run: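 Symmetric dimethylarginine (SDMA) levels were measured by in-cell western in an isogenic HAP1 pair, one expressing endogenous MTAP and one MTAP-null, and IC50 values were derived for each line. Compounds whose IC50 ratio between the lines is 3-fold or more are classed as MTAP-selective.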

PRMT5 [3] = target: T1, PRMT5; experiment: PRMT5 IC50 assay with no cofactor; format: biochemical; details: read-out: No Co-factor IC50
How it was run: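 For the SAM-containing format, dividing IC50 by 1.5 yields Ki; for the MTA-containing format the divisor is 13.5. A third format without cofactor gives IC50 alone.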

T1 sequence (O14744 whole entry): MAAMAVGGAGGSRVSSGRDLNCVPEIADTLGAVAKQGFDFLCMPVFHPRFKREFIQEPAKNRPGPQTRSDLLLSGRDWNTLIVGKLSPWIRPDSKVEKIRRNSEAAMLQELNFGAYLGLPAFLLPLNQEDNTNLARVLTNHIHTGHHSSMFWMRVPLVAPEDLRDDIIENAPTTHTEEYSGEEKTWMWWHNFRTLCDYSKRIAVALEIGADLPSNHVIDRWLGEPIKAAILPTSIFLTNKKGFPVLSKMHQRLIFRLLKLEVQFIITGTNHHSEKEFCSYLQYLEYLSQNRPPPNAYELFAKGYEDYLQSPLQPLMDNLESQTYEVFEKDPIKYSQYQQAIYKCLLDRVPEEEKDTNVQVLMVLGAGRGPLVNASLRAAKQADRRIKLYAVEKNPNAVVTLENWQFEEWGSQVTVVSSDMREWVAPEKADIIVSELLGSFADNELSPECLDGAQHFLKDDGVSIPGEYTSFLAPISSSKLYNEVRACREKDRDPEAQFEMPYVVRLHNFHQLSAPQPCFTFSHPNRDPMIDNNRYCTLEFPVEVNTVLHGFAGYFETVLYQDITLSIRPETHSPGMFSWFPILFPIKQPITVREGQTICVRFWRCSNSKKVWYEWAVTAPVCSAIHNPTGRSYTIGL
T1 sequence (Q9BQA1 whole entry partner): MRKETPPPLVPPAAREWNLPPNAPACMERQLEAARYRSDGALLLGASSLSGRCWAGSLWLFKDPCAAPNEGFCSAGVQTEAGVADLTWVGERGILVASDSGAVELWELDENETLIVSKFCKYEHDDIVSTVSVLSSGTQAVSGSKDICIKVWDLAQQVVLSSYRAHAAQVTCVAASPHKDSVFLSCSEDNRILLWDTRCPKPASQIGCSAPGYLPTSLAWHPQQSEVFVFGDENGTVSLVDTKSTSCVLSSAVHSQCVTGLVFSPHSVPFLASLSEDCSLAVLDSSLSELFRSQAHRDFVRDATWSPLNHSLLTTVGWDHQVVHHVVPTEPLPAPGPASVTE

pIC50 (PRMT5 [1]) | pIC50 (PRMT5 [2]) | pIC50 (HAP1 MTAP-deleted) | pIC50 (HAP1 MTAP-intact) | pIC50 (PRMT5 [3]) | SMILES | SAM/MTA Ratio (PRMT5 [2]) | MTAP Intact/Deleted Ratio (HAP1 MTAP-deleted)
6.30 to 7.30 | 6.30 to 7.30 | > 6.00 | > 6.00 | 5.30 to 6.30 | CCC(=O)N1CCN(c2cc(C(=O)NC[C@H](O)CN3CCc4cc(OCc5ocnc5C)ccc4C3)cc(NC3CCC3)n2)CC1 [Compound 389, 2-(cyclobutylamino)-N-[(2S)-2-hydroxy-3-{6-[(4-methyl-1,3-oxazol-5-yl)methoxy]-1,2,3,4-tetrahydroisoquinolin-2-yl}propyl]-6-(4-propanoylpiperazin-1-yl)pyridine-4-carboxamide] | A (a Ki ratio greater than or equal to 10 fold between the Ki in the presence of SAM and the Ki in the presence of MTA) | B* (an IC50 ratio greater than or equal to 3 fold but lower than 10 fold between the IC50 in the HAP1 MTAP-intact cell line and the HAP1 MTAP-deleted cell line)
6.30 to 7.30 | 6.30 to 7.30 | > 6.00 | > 6.00 | 5.30 to 6.30 | CCCN(C)c1nc(NC2COC2)cc(C(=O)NC[C@H](O)CN2CCc3cc(OCc4ocnc4C)ccc3C2)n1 [Compound 390, N-[(2S)-2-hydroxy-3-{6-[(4-methyl-1,3-oxazol-5-yl)methoxy]-1,2,3,4-tetrahydroisoquinolin-2-yl}propyl]-2-[methyl(propyl)amino]-6-[(oxetan-3-yl)amino]pyrimidine-4-carboxamide] | A (a Ki ratio greater than or equal to 10 fold between the Ki in the presence of SAM and the Ki in the presence of MTA) | C* (an IC50 ratio of less than 3 fold between the IC50 in the HAP1 MTAP-intact cell line and the HAP1 MTAP-deleted cell line)
6.30 to 7.30 | 6.30 to 7.30 | > 6.00 | ≤ 5.00 | ≤ 5.30 | Cc1ncoc1COc1ccc2c(c1C)CCN(C[C@@H](O)CNC(=O)c1cc(NC3COC3)nc(N3CCCCC3)n1)C2 [Compound 391, N-[(2S)-2-hydroxy-3-{5-methyl-6-[(4-methyl-1,3-oxazol-5-yl)methoxy]-1,2,3,4-tetrahydroisoquinolin-2-yl}propyl]-6-[(oxetan-3-yl)amino]-2-(piperidin-1-yl)pyrimidine-4-carboxamide] | A (a Ki ratio greater than or equal to 10 fold between the Ki in the presence of SAM and the Ki in the presence of MTA) | A* (an IC50 ratio greater than or equal to 10 fold between the IC50 in the HAP1 MTAP-intact cell line and the HAP1 MTAP-deleted cell line)
6.30 to 7.30 | 6.30 to 7.30 | > 6.00 | > 6.00 | 5.30 to 6.30 | Cc1ncoc1COc1ccc2c(c1)CCN(C[C@@H](O)CNC(=O)c1ccc(OC3CCN(Cc4ccccc4)CC3)cc1)C2 [Compound 392] | A (a Ki ratio greater than or equal to 10 fold between the Ki in the presence of SAM and the Ki in the presence of MTA) | C* (an IC50 ratio of less than 3 fold between the IC50 in the HAP1 MTAP-intact cell line and the HAP1 MTAP-deleted cell line)
5.30 to 6.30 | 5.30 to 6.30 | ≤ 5.00 | ≤ 5.00 | ≤ 5.30 | Cc1c(OCc2cnco2)ccc2c1CCN(C[C@@H](O)CNC(=O)c1cc(NC3CCCC3)ncn1)C2 [Compound 393, 6-(cyclopentylamino)-N-[(2S)-2-hydroxy-3-{5-methyl-6-[(1,3-oxazol-5-yl)methoxy]-1,2,3,4-tetrahydroisoquinolin-2-yl}propyl]pyrimidine-4-carboxamide] | A (a Ki ratio greater than or equal to 10 fold between the Ki in the presence of SAM and the Ki in the presence of MTA) | C* (an IC50 ratio of less than 3 fold between the IC50 in the HAP1 MTAP-intact cell line and the HAP1 MTAP-deleted cell line)
6.30 to 7.30 | 6.30 to 7.30 | > 6.00 | ≤ 5.00 | 5.30 to 6.30 | CCN1CCN(c2cc(C(=O)NC[C@H](O)CN3CCc4c(ccc(OCc5ocnc5C)c4C)C3)cc(NC3CCC3)n2)CC1 [Compound 394, 2-(cyclobutylamino)-6-(4-ethylpiperazin-1-yl)-N-[(2S)-2-hydroxy-3-{5-methyl-6-[(4-methyl-1,3-oxazol-5-yl)methoxy]-1,2,3,4-tetrahydroisoquinolin-2-yl}propyl]pyridine-4-carboxamide] | A (a Ki ratio greater than or equal to 10 fold between the Ki in the presence of SAM and the Ki in the presence of MTA) | A* (an IC50 ratio greater than or equal to 10 fold between the IC50 in the HAP1 MTAP-intact cell line and the HAP1 MTAP-deleted cell line)
5.30 to 6.30 | 6.30 to 7.30 | 5.00 to 6.00 | ≤ 5.00 | ≤ 5.30 | O=C(NC[C@H](O)CN1CCc2cc(OCc3cnco3)ccc2C1)c1cc(NC2CCCCC2)ncn1 [Compound 395, (S)-6-(cyclohexylamino)-N-(2-hydroxy-3-(6-(oxazol-5-ylmethoxy)-3,4-dihydroisoquinolin-2(1H)-yl)propyl)pyrimidine-4-carboxamide] | A (a Ki ratio greater than or equal to 10 fold between the Ki in the presence of SAM and the Ki in the presence of MTA) | 
6.30 to 7.30 | 6.30 to 7.30 | > 6.00 | 5.00 to 6.00 | 5.30 to 6.30 | Cc1ncoc1COc1ccc2c(c1)CCN(C[C@@H](O)CNC(=O)c1cc(NC3COC3)nc(N3CCN(C(C)(C)C)CC3)n1)C2 [Compound 396, 2-(4-tert-butylpiperazin-1-yl)-N-[(2S)-2-hydroxy-3-(6-[(4-methyl-1,3-oxazol-5-yl)methoxy]-1,2,3,4-tetrahydroisoquinolin-2-yl}propyl]-6-[(oxetan-3-yl)amino]pyrimidine-4-carboxamide] | A (a Ki ratio greater than or equal to 10 fold between the Ki in the presence of SAM and the Ki in the presence of MTA) | C* (an IC50 ratio of less than 3 fold between the IC50 in the HAP1 MTAP-intact cell line and the HAP1 MTAP-deleted cell line)
6.30 to 7.30 | 6.30 to 7.30 | > 6.00 | 5.00 to 6.00 | 5.30 to 6.30 | CCC(=O)N1CCN(c2cc(C(=O)NC[C@H](O)CN3CCc4cc(OCc5cnco5)ccc4C3)cc(NC3CCC3)n2)CC1 [Compound 397, (S)-2-(cyclobutylamino)-N-(2-hydroxy-3-(6-(oxazol-5-ylmethoxy)-3,4-dihydroisoquinolin-2(1H)-yl)propyl)-6-(4-propionylpiperazin-1-yl)isonicotinamide] | A (a Ki ratio greater than or equal to 10 fold between the Ki in the presence of SAM and the Ki in the presence of MTA) | C* (an IC50 ratio of less than 3 fold between the IC50 in the HAP1 MTAP-intact cell line and the HAP1 MTAP-deleted cell line)
6.30 to 7.30 | 6.30 to 7.30 | 5.00 to 6.00 | ≤ 5.00 | ≤ 5.30 | COCCN(C)c1nc(NC2COC2)cc(C(=O)NC[C@H](O)CN2CCc3c(ccc(OCc4ocnc4C)c3C)C2)n1 [Compound 398, N-[(2S)-2-hydroxy-3-{5-methyl-6-[(4-methyl-1,3-oxazol-5-yl)methoxy]-1,2,3,4-tetrahydroisoquinolin-2-yl}propyl]-2-[(2-methoxyethyl)(methyl)amino]-6-[(oxetan-3-yl)amino]pyrimidine-4-carboxamide] | A (a Ki ratio greater than or equal to 10 fold between the Ki in the presence of SAM and the Ki in the presence of MTA) | B* (an IC50 ratio greater than or equal to 3 fold but lower than 10 fold between the IC50 in the HAP1 MTAP-intact cell line and the HAP1 MTAP-deleted cell line)
5.30 to 6.30 | 6.30 to 7.30 | > 6.00 | 5.00 to 6.00 | ≤ 5.30 | O=C(NC[C@H](O)CN1CCc2cc(OCc3cnco3)ccc2C1)c1ccnc(Nc2cccnc2)c1 [Compound 399, (S)—N-(2-hydroxy-3-(6-(oxazol-5-ylmethoxy)-3N-dihydroisoquinolin-2(1H)-yl)propyl)-2-(pyridin-3-ylamino)isonicotinamide] | A (a Ki ratio greater than or equal to 10 fold between the Ki in the presence of SAM and the Ki in the presence of MTA) | B* (an IC50 ratio greater than or equal to 3 fold but lower than 10 fold between the IC50 in the HAP1 MTAP-intact cell line and the HAP1 MTAP-deleted cell line)
6.30 to 7.30 | 6.30 to 7.30 | > 6.00 | 5.00 to 6.00 | 5.30 to 6.30 | Cc1ncoc1COc1ccc2c(c1)CCN(C[C@@H](O)CNC(=O)c1cc(NC3COC3)nc(N3CCN(C(=O)C4CC4)CC3)n1)C2 [Compound 400, 2-(4-cyclopropanecarbonylpiperazin-1-yl)-N-[(2S)-2-hydroxy-3-{6-[(4-methyl-1,3-oxazol-5-yl)methoxy]-1,2,3,4-tetrahydroisoquinolin-2-yl}propyl]-6-[(oxetan-3-yl)amino]pyrimidine-4-carboxamide] | A (a Ki ratio greater than or equal to 10 fold between the Ki in the presence of SAM and the Ki in the presence of MTA) | B* (an IC50 ratio greater than or equal to 3 fold but lower than 10 fold between the IC50 in the HAP1 MTAP-intact cell line and the HAP1 MTAP-deleted cell line)
